These results are taken from patent publication US20210221785A1, “AMINO-PYRIMIDONYL DERIVATIVES, A PROCESS FOR THEIR PREPARATION AND PHARMACEUTICAL COMPOSITIONS CONTAINING THEM” (LES LABORATOIRES SERVIER, priority 2018, published 2021).

In assay [1] the test system is Z138 mantle cell lymphoma tumour cell lines. Kind of assay: In vitro cytotoxicity, MTT assay. Format: cell-based. The settings on record: Z138 cells exposed to the test compounds for 96 hours, cell viability vs DMSO treated cells. The method in brief: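 Z138 cells exposed to compounds for 96 hours, then MTT added for 4 hours. Viable cells quantified from formazan absorbance at 540 nm.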

Assay [2] has as its target T1, His-His-USP7 (aa208-560, |C315A|) (Homo sapiens, UniProt Q93009, C315A).
T1 construct: His-His-USP7 (aa208-560, |C315A|); His-His (N)
Kind of assay: Evaluation of the inhibition of USP7 by the Fluorescence Intensity (FLINT) readings. Format: biochemical. The note with it: 0.25 nM His-His-USP7, compound incubated 60 minutes at 30° C., 500 nM Ubiquitin-Rhodamine-110 substrate; 50% reduction in kinetic rate. A digest of the protocol:
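0.25 nM His-His-USP7 (aa208–560, C315A) preincubated 60 min at 30 °C with compound in 100 mM Bicine pH 8.0, 0.01% Triton X-100, 1 mM TCEP, 10% DMSO. Reaction started with 500 nM ubiquitin-rhodamine-110 and fluorescence (Ex485/Em535) read every 3 min for 21 min. IC50 derived from kinetic-rate reduction over an 11-point curve, 4-parameter fit.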

T1 sequence (Q93009 208-560 C315A): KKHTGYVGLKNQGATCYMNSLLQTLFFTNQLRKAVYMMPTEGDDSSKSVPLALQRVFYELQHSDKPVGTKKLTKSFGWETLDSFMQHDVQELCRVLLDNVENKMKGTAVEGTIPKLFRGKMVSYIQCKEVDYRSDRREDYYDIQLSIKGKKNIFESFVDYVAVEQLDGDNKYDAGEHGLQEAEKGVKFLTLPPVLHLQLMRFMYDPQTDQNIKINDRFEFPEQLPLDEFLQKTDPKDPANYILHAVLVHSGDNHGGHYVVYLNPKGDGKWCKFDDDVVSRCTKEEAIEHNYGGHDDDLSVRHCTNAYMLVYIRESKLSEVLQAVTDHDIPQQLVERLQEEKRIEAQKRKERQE

Take `Nc1c(Oc2ccc(F)cc2)ncn(CC2(O)CCN(C(=O)[C@@H]3CC[C@](F)(C#Cc4cccnn4)C[C@H]3c3ccccc3)CC2)c1=O` [Example 145, 5-amino-3-[(1-{[(1R,2R,4R)-4-fluoro-2-phenyl-4-[2-(pyridazin-3-yl)ethynyl]cyclohexyl]carbonyl}-4-hydroxypiperidin-4-yl)methyl]-6-(4-fluorophenoxy)pyrimidin-4-one]: the IC50 in assay [1] (Homo sapiens, Z-138, 96 h) amounted to 0.00231 µM; in assay [2] it was 8.66 nM.

Consider `CO[C@]1(C#Cc2cccnn2)CC[C@@H](C(=O)N2CCC(O)(Cn3cnc(Oc4ccc(F)cc4)c(N)c3=O)CC2)[C@H](c2ccccc2)C1` [Example 146, 5-amino-6-(4-fluorophenoxy)-3-[(4-hydroxy-{[(1R,2R,4R)-4-methoxy-2-phenyl-4-[2-(pyridazin-3-yl)ethynyl]cyclohexyl]carbonyl}piperidin-4-yl)methyl]pyrimidin-4-one], for which the results for the IC50 in assay [1] and in assay [2] were 0.00597 µM and 18.5 nM, respectively.

As to `CO[C@@]1(C#Cc2cccnn2)CC[C@@H](C(=O)N2CCC(O)(Cn3cnc(Oc4ccc(F)cc4)c(N)c3=O)CC2)[C@H](c2ccccc2)C1` [Example 147, 5-amino-6-(4-fluorophenoxy)-3-[(4-hydroxy-1-{[(1R,2R,4S)-4-methoxy-2-phenyl-4-[2-(pyridazin-3-yl)ethynyl]cyclohexyl]carbonyl}piperidin-4-yl)methyl]pyrimidin-4-one], the IC50 in assay [1] (Homo sapiens, Z-138, 96 h) was found to be 0.199 µM; in assay [2], 124 nM.

Consider `Cc1nccnc1C#C[C@@]1(F)CC[C@@H](C(=O)N2CCC(O)(Cn3cnc(Oc4ccc(F)cc4)c(N)c3=O)CC2)[C@H](c2ccccc2)C1` [Example 148, 5-amino-3-({1-[(1R,2R,4R)-4-fluoro-4-[2-(3-methylpyrazin-2yl)ethynyl]-2-phenylcyclohexanecarbonyl]-4-hydroxypiperidin-4-yl}methyl)-6-(4-fluorophenoxy)-3,4-dihydropyrimidin-4-one], for which the concentration for half-maximal inhibition (IC50) in assay [1] (Homo sapiens, Z-138, 96 h) was determined as 0.0101 µM; in assay [2] it was 26.6 nM.

With `Cn1ccnc1C#C[C@@]1(F)CC[C@@H](C(=O)N2CCC(O)(Cn3cnc(Oc4ccc(F)cc4)c(N)c3=O)CC2)[C@H](c2ccccc2)C1` [Example 149, 5-amino-3-[(1-{[(1R,2R,4R)-4-fluoro-4-[2-(1-methylimidazol-2-yl)ethynyl]-2-phenylcyclohexyl]carbonyl}-4-hydroxypiperidin-4-yl)methyl]-6-(4-fluorophenoxy)pyrimidin-4-one], the IC50 in assay [1] (Homo sapiens, Z-138, 96 h) was 0.259 µM; in assay [2], 8.55 nM.

Consider `Cc1cnc(C#CC2(F)CCC(C(=O)N3CCC(O)(Cn4cnc(Oc5ccc(F)cc5)c(N)c4=O)CC3)C(c3ccccc3)C2)cn1` [Example 150, 5-amino-3-({1-[1R,2R,4S)-4-fluoro-4-[2-(5-methylpyrazin-2-yl)ethynyl]-2-phenylcyclohexanecarbonyl]-4-hydroxypiperidin-4-yl}methyl)-6-(4-fluorophenoxy)-3,4-dihydropyrimidin-4-one], for which the IC50 was 0.0258 µM in assay [1] (Homo sapiens, Z-138, 96 h) and 37.7 nM in assay [2].

As for `Cc1cnc(C#C[C@]2(F)CC[C@@H](C(=O)N3CCC(O)(Cn4cnc(Oc5ccc(F)cc5)c(N)c4=O)CC3)[C@H](c3ccccc3)C2)cn1` [Example 151, 5-amino-3-({1-[(1R,2R,4S)-4-fluoro-4-[2-(5-methylpyrazin-2-yl)ethynyl]-2-phenylcyclohexanecarbonyl]-4-hydroxypiperidin-4-yl}methyl)-6-(4-fluorophenoxy)-3,4-dihydropyrimidin-4-one], the IC50 worked out at 0.0191 µM in assay [1] (Homo sapiens, Z-138, 96 h) and 11.4 nM in assay [2].

Regarding `Cn1ccnc1C#C[C@]1(F)CC[C@@H](C(=O)N2CCC(O)(Cn3cnc(Oc4ccc(F)cc4)c(N)c3=O)CC2)[C@H](c2ccccc2)C1` [Example 152], the IC50 in assay [1] (Homo sapiens, Z-138, 96 h) was determined as 0.268 µM; in assay [2], 30.3 nM.

On to `Nc1c(Oc2ccc(F)cc2)ncn(CC2(O)CCN(C(=O)[C@@H]3CC[C@](F)(C#Cc4nccnc4Cl)C[C@H]3c3ccccc3)CC2)c1=O` [Example 153, 5-amino-3-({1-[(1R,2R,4R)-4-[2-(3-chloropyrazin-2-yl)ethynyl]-4-fluoro-2-phenylcyclohexanecarbonyl]-4-hydroxypiperidin-4-yl}methyl)-6-(4-fluorophenoxy)-3,4-dihydropyrimidin-4-one], for which the 50% inhibitory concentration (IC50) in assay [1] (Homo sapiens, Z-138, 96 h) was found to be 0.0175 µM; in assay [2], 37.1 nM.

With `COc1nccnc1C#C[C@@]1(F)CC[C@@H](C(=O)N2CCC(O)(Cn3cnc(Oc4ccc(F)cc4)c(N)c3=O)CC2)[C@H](c2ccccc2)C1` [Example 154, 5-amino-3-({1-[(1R,2R,4R)-4-fluoro-4-[2-(3-methoxypyrazin-2-yl)ethynyl]-2-phenylcyclohexanecarbonyl]-4-hydroxypiperidin-4-yl}methyl)-6-(4-fluorophenoxy)-3,4-dihydropyrimidin-4-one], the IC50 in assay [1] (Homo sapiens, Z-138, 96 h) came out at 0.016 µM; in assay [2], 24.7 nM.

On to `CO[C@]1(C#Cc2cnccn2)CC[C@@H](C(=O)N2CCC(O)(Cn3cnc(Oc4ccc(F)cc4)c(N)c3=O)CC2)[C@H](c2ccccc2)C1` [Example 156, 5-amino-6-(4-fluorophenoxy)-3-({4-hydroxy-1-[(1R,2R,4R)-4-methoxy-2-phenyl-4-[2-(pyrazin-2-yl)ethynyl]cyclohexanecarbonyl]piperidin-4-yl}methyl)-3,4-dihydropyrimidin-4-one], for which the IC50 in assay [1] (Homo sapiens, Z-138, 96 h) turned out to be 0.00653 µM; in assay [2], 29.6 nM.

In the case of `Nc1c(Oc2ccc(F)cc2)ncn(CC2(O)CCN(C(=O)[C@@H]3CC[C@](F)(C#Cc4cc(F)ccn4)C[C@H]3c3ccccc3)CC2)c1=O` [Example 157, 5-amino-3-({1-[(1R,2R,4R)-4-fluoro-4-[2-(4-fluoropyridin-2-yl)ethynyl]-2-phenylcyclohexanecarbonyl]-4-hydroxypiperidin-4-yl}methyl)-6-(4-fluorophenoxy)-3,4-dihydropyrimidin-4-one], the IC50 in assay [1] (Homo sapiens, Z-138, 96 h) worked out at 0.00716 µM; in assay [2] it was 6.77 nM.

Consider `CO[C@]1(C#Cc2nccn2C)CC[C@@H](C(=O)N2CCC(O)(Cn3cnc(Oc4ccc(F)cc4)c(N)c3=O)CC2)[C@H](c2ccccc2)C1` [Example 159, 5-amino-6-(4-fluorophenoxy)-3-[(4-hydroxy-1-{[(1R,2R,4R)-4-methoxy-4-[2-(1-methylimidazol-2-yl)ethynyl]-2-phenytcyclohexyl]carbonyl}piperidin-4-yl)methyl]pyrimidin-4-one], for which the IC50 in assay [1] (Homo sapiens, Z-138, 96 h) was found to be 0.0168 µM; in assay [2] it was 28.2 nM.

Consider `Nc1cccc(C#C[C@@]2(F)CC[C@@H](C(=O)N3CCC(O)(Cn4cnc(Oc5ccc(F)cc5)c(N)c4=O)CC3)[C@H](c3ccccc3)C2)n1` [Example 161, 5-amino-3-[(1-{[(1R,2R,4R)-4-[2-(6-aminopyridin-2-yl)ethynyl]-4-fluoro-2-phenylcyclohexyl]carbonyl}-4-hydroxypiperidin-4-yl)methyl]-6-(4-fluurophenoxy)pyrimidin-4-one], for which the IC50 in assay [1] came out at 0.0126 µM; in assay [2], 29.4 nM.

On to `Cc1ccc(C#C[C@@]2(F)CC[C@@H](C(=O)N3CC[C@](O)(Cn4cnc(Oc5ccc(F)cc5)c(N)c4=O)C(F)(F)C3)[C@H](c3ccccc3)C2)nn1` [Example 162, 5-amino-3-[[(4S)-3,3-difluoro-1-[(1R,2R,4R)-4-fluoro-4-[2-(6-methylpyridazin-3-yl)ethynyl]-2-phenylcyclohexanecarbonyl]-4-hydroxypiperidin-4-yl]methyl]-6-(4-fluorophenoxy)-3,4-dihydropyrimidin-4-one], for which the IC50 in assay [1] (Homo sapiens, Z-138, 96 h) was 0.00647 µM; in assay [2], 10 nM.

`Nc1cccc(C#C[C@@]2(F)CC[C@@H](C(=O)N3CC[C@](O)(Cn4cnc(Oc5ccc(F)cc5)c(N)c4=O)C(F)(F)C3)[C@H](c3ccccc3)C2)n1` [Example 163, 5-amino-3-{[(4S)-1-[(1R,2R,4R)-4-[2-(6-aminopyridin-2-yl)ethynyl]-4-fluoro-2-phenylcyclohexanecarbonyl]-3,3-difluoro-4-hydroxypiperidin-4-yl]methyl}-6-(4-fluorophenoxy)-3,4-dihydropyrimidin-4-one]: the IC50 in assay [1] (Homo sapiens, Z-138, 96 h) was 0.0277 µM; in assay [2], 52.4 nM.

Turning to `CO[C@]1(C#Cc2cccc(N)n2)CC[C@@H](C(=O)N2CC[C@](O)(Cn3cnc(Oc4ccc(F)cc4)c(N)c3=O)C(F)(F)C2)[C@H](c2ccccc2)C1` [Example 164, 5-amino-3-{[(4S)-1-[(1R,2R,4R)-4-[2-(6-aminopyridin-2-yl)ethynyl]-4-methoxy-2-phenylcyclohexanecarbonyl]-3,3-difluoro-4-hydroxypiperidin-4-yl]methyl}-6-(4-fluorophenoxy)-3,4-dihydropyrimidin-4-one], the IC50 turned out to be 0.0165 µM in assay [1] (Homo sapiens, Z-138, 96 h) and 24.6 nM in assay [2].

As for `CO[C@]1(C#Cc2cccnn2)CC[C@@H](C(=O)N2CC[C@](O)(Cn3cnc(Oc4ccc(F)cc4)c(N)c3=O)C(F)(F)C2)[C@H](c2ccccc2)C1` [Example 165, 5-amino-3-{[(4S)-3,3-difluoro-4-hydroxy-1-{[(1R,2R,4R)-4-methoxy-2-phenyl-4-[2-(pyridazin-3-yl)ethynyl]cyclohexyl]carbonyl}piperidin-4-yl]methyl}-6-(4-fluorophenoxy)pyrimidin-4-one], the IC50 in assay [1] (Homo sapiens, Z-138, 96 h) worked out at 0.00415 µM; in assay [2] it was 5.57 nM.

Take `CO[C@]1(C#Cc2ccccn2)CC[C@@H](C(=O)N2CC[C@](O)(Cn3cnc(Oc4ccc(F)cc4)c(N)c3=O)C(F)(F)C2)[C@H](c2ccccc2)C1` [Example 166, 5-amino-3-{[(4S)-3,3-difluoro-4-hydroxy-1-[(1R,2R,4R)-4-methoxy-2-phenyl-4-[2-(pyridin-2-yl)ethynyl]cyclohexanecarbonyl]piperidin-4-yl]methyl}-6-(4-fluorophenoxy)-3,4-dihydropyrimidin-4-one]: the IC50 turned out to be 0.00943 µM in assay [1] (Homo sapiens, Z-138, 96 h) and 11.2 nM in assay [2].
